What was measured:
semi-comatose patient = details: reverts when drug action subsides; cited from earlier work
abnormal baboon = details: cited from earlier work
[1] = test system: patient after subarachnoid haemorrhage; test: Hearing and speech evaluation before and after zolpidem after subarachnoid haemorrhage (Example 4); assay type: in vivo, human
Description: The patient was then examined for any changes in hearing. […] The patient was also evaluated by the speech therapist before and after zolpidem.

[2] = test system: patient after subarachnoid haemorrhage; test: Brain SPECT before and after zolpidem after subarachnoid haemorrhage (Example 4); assay type: in vivo, human; details: 1 hour after 10 mg zolpidem
[3] = test system: patient who had suffered a stroke; test: Clinical observation after zolpidem in a stroke patient (Example 1); assay type: in vivo, human; details: 10 mg zolpidem
Source text: They had suffered a stroke several years before and presented with left-sided paraplegia since the onset of their stroke. Their cognition was still normal but they had some aphasia and decreased proprioseption that was evident from their inability to use scissors with their right hand. The clinical and neurological features of the patient were unremarkable apart from the above.

[4] = test system: patient with Ramsay-Hunt syndrome; test: Zolpidem therapy of Ramsay-Hunt syndrome (Example 3); assay type: in vivo, human
Source text: On treatment, the following features improved. […] Also, as part of the syndrome they could not close their left eye. After zolpidem they could.

[5] = test system: patients with Spinocerebellar Ataxia Type 2; test: Clinical response to zolpidem in a family with Spinocerebellar Ataxia Type 2 (Example 2); assay type: in vivo, human
Source text: There is currently no effective pharmacologic treatment for spinocerebellar ataxia. […] Spinocerebellar Ataxia Type 2 was confirmed by molecular analysis.

Parkinson's disease = details: in vivo; cited from earlier work

SMILES: CN1C(=O)CN=C(c2ccccc2)c2cc(Cl)ccc21 [diazepam]
- state of consciousness after drug application (semi-comatose patient): not awakened

SMILES: CCOC(=O)c1ncn2c1CN(C)C(=O)c1cc(F)ccc1-2 [flumazenil]
- effect on zolpidem-induced asymmetric perfusion pattern (abnormal baboon; abnormal baboon): attenuates the influence of zolpidem

SMILES: Cc1ccc(-c2nc3ccc(C)cn3c2CC(=O)N(C)C)cc1 [zolpidem]
- hearing (pre and post-zolpidem audiograms) ([1]; after 10 mg zolpidem): improved
- sleepiness ([1]; after 10 mg zolpidem): slightly sleepy
- speech ability ([1]; after 10 mg zolpidem): improved markedly
- persistence of hearing and speech improvements ([1]; even after halving the zolpidem dose): remained for the duration of drug action
- brain perfusion (abnormal baboon; brain-abnormal baboon): asymmetric increased perfusion
- defect in the right parietal aspect of the brain [2]: remained unchanged
- state of consciousness after drug application (semi-comatose patient): exits their permanent vegetative state
- clinical changes after zolpidem [3]: no marked clinical changes
- ability to use scissors ([3]; for the next few hours until drug action subsided): able to use scissors
- closing of left eye ([4]; after zolpidem): they could
- drinking fluids ([4]; on zolpidem treatment): able to drink fluids directly from a cup
- tonus of facial nerves ([4]; on zolpidem treatment): improved
- time to clinical improvement ([5]; 10 mg zolpidem): ≤ 1 h
- patients improved clinically ([5]; family of five patients, 10 mg zolpidem): four
- ataxia, intention tremor and titubation ([5]; patient P1): improved moderately
- ataxia, intention tremor and titubation ([5]; patient P2): improved
- ataxia, intention tremor and titubation ([5]; patient P3): improved moderately
- clinical improvement ([5]; patient P4): no improvement
- ataxia, intention tremor and titubation ([5]; patient P5): slightly improved
- obsessive-compulsive symptoms (cessation of verbal iterations) (Parkinson's disease): improved
- symptoms of PD (akinesia and rigidity) (Parkinson's disease): improved
